From patent US7820833B2, “Dithio compounds” (Marquette University, priority 2005, dated 2010)

Assay: FRET-based detection of thiols with coumarin-DAP-FITC
Conditions: 5 μM probe, Hepes pH 7.0; excitation 300 to 330 nm; no DTT
Description: FIG. 18. FRET-based detection of thiols: (a) R^1—S—S—R^2 probe with FRET capability (coumarin-DAP-FITC); (b) Fluorescence emission of coumarin-DAP-FITC at different excitation wavelengths; (c) Fluorescence emission of coumarin DAP-FITC after treatment with 1 mM DTT reductant (5 min) at different excitation wavelengths.
Hepes (pH 7.0) buffer was used in this study (FIG. 18) and fluorescence readings were made on a BMG Polarstar Galaxy fluorescence plate reader and/or on a Jasco FP-6500 spectrofluorometer. […] The probe (5 μM) was transferred to a 4 mL fluorescence cell and a three dimensional fluorescence spectra was recorded with excitation wavelength from 300 nm to 400 nm and emission wavelength from 400 nm to 600 nm. The coumarin chromophone has maximum excitation wavelength in the range of 310 to 325 nm and emits in the range of 400 nm to 425 nm. […] Analogues of this coumarin-DAP-FITC FRET pair can be used to tune excitation wavelengths in the range of 280 to 400 nm by placing different substitutions on the coumarin core. This includes using commercially available coumarin compounds and also coumarin compounds synthesized with functional groups like NO2, CN, NH2, COOH, CHO, alkyl, benzyl, pyridyl, naphthyl, indoles, etc at any of the synthetically feasible positions on benzyl ring of coumarin or lactone ring of coumarin. […]

In the case of `Cc1cc(=O)oc2cc(SSc3ccc(C(=S)Nc4ccc(C(=O)O)c(-c5c6ccc(=O)cc-6oc6cc(O)ccc56)c4)cc3)ccc12` [coumarin-DAP-FITC, 2-(6-Hydroxy-3-oxo-3H-xanthen-9-yl)-4-[4-(4-methyl-2-oxo-2H-chromen-7-yldisulfanyl)-thiobenzoylamino]-benzoic acid], the “fluorescence emission of intact probe” value is reported as “emission is only from FITC at 520 nm”.
